In general, GI50 refers to the concentration at which growth is held to half of that of the control. A low value points to more potent growth inhibition. The term pIC50 denotes the negative decadic logarithm of the IC50, by convention in mol/L.

One assay has as its system MV-4-11. Briefly: Cell growth inhibition assay (CellTiter-Glo), MV-4-11. In kind it is cell-based, human. Particulars: MV-4-11 cells, 4 days; for GI50: Homo sapiens, MV4-11, 96 h, half-maximal growth inhibition; for MV-4-11 TGI: total growth inhibition. The gist of the method: (§1)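 Cells were exposed 4 days at 37 °C, 5% CO2 to 3-fold serial dilutions starting at 10 μM (0.1% DMSO vehicle). Viability was measured as ATP by CellTiter-Glo luminescence, corrected for background and a day-0 plate. IC50 and TGI were derived by four-parameter fitting.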
Background: ATP-based viability assays read luminescence as a measure of living cells.

The next assay has as its target BRD3 (Homo sapiens (Human), UniProt Q15059). Put plainly: TR-FRET in-vitro binding assay for BRD3. Particulars: 45 nM His-Brd3(20-477), acetyl-histone H4 (AcK 5, 8, 12, 16) peptide. The method in brief:
(§2)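 Incubation at 30° C lasted 35 min, followed by TR-FRET measurement; each compound was tested as 8 single-point concentrations.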
(In general: TR-FRET usually uses a lanthanide donor and a delayed reading to cut background.)

A further assay concerns THP-1. Put plainly: Cell growth inhibition assay (CellTiter-Glo), THP-1. Particulars: THP-1 cells, 4 days; for GI50: Homo sapiens, 96 h, half-maximal growth inhibition; for THP-1 TGI: total growth inhibition. In kind it is cell-based, human. The gist of the method: as §1
The target of the next assay is BRD2 (Homo sapiens (Human), UniProt P25440). Briefly: TR-FRET in-vitro binding assay for BRD2. Particulars: 45 nM His-Brd2(60-472), acetyl-histone H4 (AcK 5, 8, 12, 16) peptide. The gist of the method:
as §2

In the next assay the target is BRD4-NUT-fusion (Homo sapiens, UniProt O60885). Briefly: Nut-foci formation assay in HCC2494 NUT midline carcinoma cells. In kind it is cell-based. Particulars: 24 hours, nuclear BRD4-NUT foci by immunofluorescence microscopy, read-out: HCS Brd4-NUT IC50. The protocol:
Nut-Foci Formation Assay […] Compound-mediated inhibition of BRD4 activity can be monitored by quantification of the number and intensity of nuclear BRD4-NUT foci using automated immunofluorescence microscopy. Briefly, 5000 cells in 20 μL fresh medium are seeded into Poly-D-Lysine-precoated 384-well plates and incubated overnight at 37° C. and 5% CO2, followed by addition of 5 μl medium containing compound dilutions at 5-fold their final intended concentration. […] Assay plates can be imaged using the appropriate filter sets on the Cellomics VTi automated fluorescence microscopy platform (ThermoFisher Scientific) and the population average of the number of NUT-foci per nucleus is quantified using the Cellomics Spot Detection BioApplication image analysis algorithm (ThermoFisher Scientific). […] Compound concentrations leading to half-maximal (IC50) inhibition of the aforementioned readout parameters are determined using standard four parameter curve fitting.

The next assay deals with BRD4 (Homo sapiens (Human), UniProt O60885). Briefly: TR-FRET in-vitro binding assay for BRD4. The settings on record: 45 nM His-Brd4(44-477), acetyl-histone H4 (AcK 5, 8, 12, 16) peptide. The gist of the method:
as §2

pIC50: −log10 of the molar value.

Chain of BRD3 (Q15059 20-477): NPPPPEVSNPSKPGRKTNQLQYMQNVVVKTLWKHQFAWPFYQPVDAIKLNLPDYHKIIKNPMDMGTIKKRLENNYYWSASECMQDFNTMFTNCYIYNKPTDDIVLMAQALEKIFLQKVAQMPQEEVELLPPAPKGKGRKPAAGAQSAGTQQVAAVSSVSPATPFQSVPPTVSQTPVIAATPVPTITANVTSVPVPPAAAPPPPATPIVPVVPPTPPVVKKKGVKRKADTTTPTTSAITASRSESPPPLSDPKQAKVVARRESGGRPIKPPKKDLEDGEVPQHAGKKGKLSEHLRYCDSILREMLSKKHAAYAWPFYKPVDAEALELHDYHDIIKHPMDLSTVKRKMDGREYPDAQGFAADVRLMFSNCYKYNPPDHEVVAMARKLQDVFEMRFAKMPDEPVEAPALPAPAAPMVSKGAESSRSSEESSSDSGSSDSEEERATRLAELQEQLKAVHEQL
Chain of BRD2 (P25440 60-472): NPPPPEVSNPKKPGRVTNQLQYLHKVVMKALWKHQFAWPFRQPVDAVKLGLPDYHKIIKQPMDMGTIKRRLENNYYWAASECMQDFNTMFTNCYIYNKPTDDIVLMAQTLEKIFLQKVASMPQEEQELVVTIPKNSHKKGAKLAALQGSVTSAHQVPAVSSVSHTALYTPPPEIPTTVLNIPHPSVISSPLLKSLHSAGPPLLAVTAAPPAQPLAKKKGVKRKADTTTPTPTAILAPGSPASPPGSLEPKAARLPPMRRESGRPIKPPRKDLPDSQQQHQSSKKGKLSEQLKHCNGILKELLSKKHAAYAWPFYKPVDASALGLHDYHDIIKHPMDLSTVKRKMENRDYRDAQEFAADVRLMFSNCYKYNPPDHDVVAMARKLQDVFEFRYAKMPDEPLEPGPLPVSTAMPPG

As to `COc1ncc(-c2cc3c(n2C)C(c2ccc(Cl)cc2)N(c2cc(Cl)c(=O)n(C)c2)C3=O)c(OC)n1` (centres unmarked) [Example 38, 5-(5-chloro-1-methyl-6-oxo-1,6-dihydropyridin-3-yl)-6-(4-chlorophenyl)-2-(2,4-dimethoxypyrimidin-5-yl)-1-methyl-5,6-dihydropyrrolo[3,4-b]pyrrol-4(1H)-one], the GI50 in the assay with MV-4-11 worked out at 29.4 nM; with THP-1, 37.5 nM. For the same compound, the “MV-4-11 TGI” value in the assay with MV-4-11 turned out to be 51.5 nM. For the same compound, the negative logarithm of the IC50 (pIC50) is 7.23 at BRD3, 6.49 at BRD2, 7.14 on BRD4-NUT-fusion and 7.33 on BRD4. Further, the “THP-1 TGI” value with THP-1 was found to be 72.7 nM.
On to `Cn1ccc2c1[C@@H](c1ccc(Cl)cc1)N(c1cc(Cl)c(=O)n(C)c1)C2=O` [Example 77, (R)-5-(5-chloro-1-methyl-6-oxo-1,6-dihydropyridin-3-yl)-6-(4-chlorophenyl)-1-methyl-5,6-dihydropyrrolo[3,4-b]pyrrol-4(1H)-one], for which the GI50 was determined as 57.6 nM in the assay with MV-4-11 and 88.9 nM in the assay on THP-1. For the same compound, in the assay with MV-4-11, the “MV-4-11 TGI” value turned out to be 96.3 nM. The negative-log IC50 (pIC50) was 7.02 on BRD3, 6.70 at BRD2, 8.00 at BRD4-NUT-fusion and 6.96 at BRD4. In addition, in the assay on THP-1, the “THP-1 TGI” value was determined as 146 nM.
Consider `Cc1cc2c(n1C)[C@@H](c1ccc(Cl)cc1)N(c1cc(Cl)c(=O)n(C)c1)C2=O` [Example 75, (R)-5-(5-chloro-1-methyl-6-oxo-1,6-dihydropyridin-3-yl)-6-(4-chlorophenyl)-1,2-dimethyl-5,6-dihydropyrrolo[3,4-b]pyrrol-4(1H)-one], for which the values for the GI50 with MV-4-11 and in the assay on THP-1 were 54.8 nM and 74.3 nM, respectively. The “MV-4-11 TGI” value with MV-4-11 was found to be 102 nM. For the same compound, the pIC50 is 7.27 at BRD3, 6.87 at BRD2, 7.95 at BRD4-NUT-fusion and 7.07 at BRD4. For the same compound, in the assay on THP-1, the “THP-1 TGI” value is 167 nM.
With `Cc1cn(C)c2c1C(=O)N(c1cc(C)c(=O)n(C)c1)C2c1ccc(Cl)cc1` (centres unmarked) [Example 34, 6-(4-chlorophenyl)-5-(1,5-dimethyl-6-oxo-1,6-dihydropyridin-3-yl)-1,3-dimethyl-5,6-dihydropyrrolo[3,4-b]pyrrol-4(1H)-one], the GI50 came to 19.4 nM in the assay with MV-4-11 and 43.8 nM with THP-1. In addition, the “MV-4-11 TGI” value with MV-4-11 was determined as 48.3 nM. The pIC50 at BRD3 was 7.49; on BRD2, 7.43; on BRD4-NUT-fusion it was 7.57; on BRD4, 7.37. For the same compound, the “THP-1 TGI” value in the assay on THP-1 is 99.4 nM.
With `Cc1cn(C)c2c1C(=O)N(c1cc(C)c3nnc(C)n3c1)C2c1ccc(Cl)cc1` (centres unmarked) [Example 33, 6-(4-chlorophenyl)-5-(3,8-dimethyl-[1,2,4]triazolo[4,3-a]pyridin-6-yl)-1,3-di methyl-5,6-dihydropyrrolo[3,4-b]pyrrol-4(1H)-one], the GI50 in the assay on MV-4-11 was found to be 7.71 nM; with THP-1 it was 17.4 nM. In addition, in the assay on MV-4-11, the “MV-4-11 TGI” value turned out to be 20.05 nM. In addition, the negative logarithm of the IC50 (pIC50) is 7.46 at BRD3, 7.44 on BRD2, 8.02 on BRD4-NUT-fusion and 7.51 at BRD4. Besides, the “THP-1 TGI” value in the assay on THP-1 was 35.6 nM.
For the compound `COc1ncc(-c2cc3c(n2C)[C@@H](c2ccc(Cl)cc2)N(c2cc(C)c(=O)n(C)c2)C3=O)cn1` [Example 56, (R)-6-(4-chlorophenyl)-5-(1,5-dimethyl-6-oxo-1,6-dihydropyridin-3-yl)-2-(2-methoxypyrimidin-5-yl)-1-methyl-5,6-dihydropyrrolo[3,4-b]pyrrol-4(1H)-one], the 50% growth inhibitory concentration (GI50) in the assay on MV-4-11 is 24.8 nM; in the assay on THP-1, 30.3 nM. Moreover, in the assay with MV-4-11, the “MV-4-11 TGI” value was 44.5 nM. Moreover, the negative-log IC50 (pIC50) is 7.66 on BRD3, 7.52 on BRD2, 7.41 on BRD4-NUT-fusion and 7.55 on BRD4. Besides, in the assay on THP-1, the “THP-1 TGI” value was 50.7 nM.
Take `COc1ncc(-c2cc3c(n2C)[C@@H](c2ccc(Cl)cc2)N(c2cc(C)c(=O)n(C)c2)C3=O)c(OC)n1` [Example 54, (R)-6-(4-chlorophenyl)-2-(2,4-dimethoxypyrimidin-5-yl)-5-(1,5-dimethyl-6-oxo-1,6-dihydropyridin-3-yl)-1-methyl-5,6-dihydropyrrolo[3,4-b]pyrrol-4(1H)-one]: the concentration for 50% growth inhibition (GI50) is 8.9 nM with MV-4-11 and 23.3 nM in the assay with THP-1. Also, the “MV-4-11 TGI” value with MV-4-11 stood at 18 nM. For the same compound, the negative logarithm of the IC50 (pIC50) is 7.55 at BRD3, 7.57 at BRD2, 7.57 at BRD4-NUT-fusion and 7.35 on BRD4. The “THP-1 TGI” value in the assay on THP-1 stood at 41.5 nM.
With `Cc1cc(N2C(=O)c3cc(-c4ccn(C)c(=O)c4)n(C)c3C2c2ccc(Cl)cc2)cn(C)c1=O` (centres unmarked) [Example 45, 6-(4-chlorophenyl)-5-(1,5-dimethyl-6-oxo-1,6-dihydropyridin-3-yl)-1-methyl-2-(1-methyl-2-oxo-1,2-dihydropyridin-4-yl)-5,6-dihydropyrrolo[3,4-b]pyrrol-4(1H)-one], the 50% growth inhibitory concentration (GI50) in the assay on MV-4-11 came out at 55.9 nM; in the assay with THP-1, 109 nM. Moreover, the “MV-4-11 TGI” value in the assay with MV-4-11 was 96.7 nM. Further, the negative logarithm of the IC50 (pIC50) was 7.73 on BRD3, 7.66 on BRD2, 7.01 on BRD4-NUT-fusion and 7.61 on BRD4. Moreover, the “THP-1 TGI” value in the assay on THP-1 was 213 nM.
Consider `Cn1c(-c2ccc(=O)n(C)c2)cc2c1C(c1ccc(Cl)cc1)N(c1cc(Cl)c(=O)n(C)c1)C2=O` (centres unmarked) [Example 42, 5-(5-chloro-1-methyl-6-oxo-1,6-dihydropyridin-3-yl)-6-(4-chlorophenyl)-1-methyl-2-(1-methyl-6-oxo-1,6-dihydropyridin-3-yl)-5,6-dihydropyrrolo[3,4-b]pyrrol-4(1H)-one], for which the 50% growth inhibitory concentration (GI50) stood at 227 nM with MV-4-11 and 811 nM in the assay with THP-1. The “MV-4-11 TGI” value in the assay on MV-4-11 came to 348 nM. The figures for the pIC50 on BRD3, on BRD4-NUT-fusion and at BRD4 were 7.28, 5.30 and 6.57, respectively. The “THP-1 TGI” value in the assay on THP-1 is 1470 nM.

Source of the values: patent US9550796B2, “Pyrrolopyrrolone derivatives and their use as BET inhibitors” (NOVARTIS AG, priority 2013, dated 2017).
